# Assays:
# [1] = Inhibition of mouse intracellular ARG in M2 polarized C57BL/6 mouse BMDM cells incubated for 24 hrs by absorbance based analysis; assay type: cell-based; details: C57BL/6, BMDM
# [2] = Volume of distribution at steady state in Sprague-Dawley rat at 3 mg/kg, iv measured over 24 hrs by LC-MS/MS analysis; assay type: ADME, organism-based; details: in vivo, read-out: Vdss
# [3] = molecular target: T1, Arginase-1 (Homo sapiens, UniProt P05089); experiment: Inhibition of human recombinant ARG1 expressed in Escherichia coli using L-arginine hydrochloride as substrate assessed as inhibition of urea production incubated for 20 mins by colorimetric analysis
# T1 sequence (P05089 whole entry): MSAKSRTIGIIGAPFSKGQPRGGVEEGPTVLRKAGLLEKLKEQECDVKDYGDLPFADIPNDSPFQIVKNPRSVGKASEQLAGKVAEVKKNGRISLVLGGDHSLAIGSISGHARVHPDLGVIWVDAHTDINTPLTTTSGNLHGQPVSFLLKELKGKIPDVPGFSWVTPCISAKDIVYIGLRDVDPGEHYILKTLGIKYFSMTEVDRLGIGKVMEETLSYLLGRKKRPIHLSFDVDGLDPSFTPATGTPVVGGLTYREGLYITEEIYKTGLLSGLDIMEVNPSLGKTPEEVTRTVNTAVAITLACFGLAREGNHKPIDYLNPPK
# [4] = Clearance in Sprague-Dawley rat at 3 mg/kg, iv measured over 24 hrs by LC-MS/MS analysis; assay type: ADME, organism-based; details: in vivo
# [5] = Terminal elimination half-life in Sprague-Dawley rat at 3 mg/kg, iv measured over 24 hrs by LC-MS/MS analysis; assay type: ADME, organism-based; details: in vivo, read-out: beta t1/2 (converted)
# [6] = Tmax in Sprague-Dawley rat at 10 mg/kg, po measured over 24 hrs by LC-MS/MS analysis; assay type: ADME, organism-based; details: in vivo
# [7] = Oral bioavailability in Sprague-Dawley rat at 10 mg/kg measured over 24 hrs by LC-MS/MS analysis; assay type: ADME, organism-based; details: in vivo
# [8] = Drug metabolism in Sprague-Dawley rat plasma assessed as increase in arginine level by measuring fold change at 10 mg/kg, po measured for 24 hrs by LC-MS/MS analysis; assay type: ADME, organism-based; details: in vivo
# [9] = Drug metabolism in Balb/c mouse plasma assessed as (3R,5S)-3-amino-5-(2-boronoethyl)piperidine-3-carboxylic acid metabolite formation at 100 mg/kg, po measured for 24 hrs by LC-MS/MS analysis; assay type: ADME, organism-based; details: in vivo
# [10] = Drug metabolism in Balb/c mouse plasma assessed as increase in arginine level by measuring fold change at 100 mg/kg, po measured for 24 hrs […] by LC-MS/MS analysis; assay type: ADME, organism-based; details: in vivo
# [11] = Oral bioavailability in Balb/c mouse at 100 mg/kg measured for 24 hrs by LC-MS/MS analysis; assay type: ADME, organism-based; details: in vivo
# [12] = molecular target: T1, Arginase-1; experiment: Inhibition of extracellular arginase (unknown origin)
# [13] = Genotoxicity in Salmonella typhimurium TA98 in presence of S9 fraction by Ames test; assay type: toxicity; details: salmonella enterica subsp. enterica serovar typhimurium
# [14] = molecular target: Voltage-gated inwardly rectifying potassium channel KCNH2 (Homo sapiens, UniProt Q12809); experiment: Inhibition of hERG; assay type: toxicity
# [15] = Toxicity in Sprague-Dawley rat assessed as change in body weight measured after 7 days; details: in vivo, 168 h, time 7 day
# [16] = Toxicity in Sprague-Dawley rat assessed as mortality upto 1 g/Kg, po measured after 7 days; assay type: organism-based; details: in vivo, 1000 mg/kg, 168 h, time 7 day
# [17] = Permeability in human Caco-2 cells; assay type: ADME, cell-based
# [18] = AUC (0 to infinity) in Sprague-Dawley rat at 10 mg/kg, po measured for 24 hrs by LC-MS/MS analysis; assay type: ADME, organism-based; details: in vivo
# Sequence of Voltage-gated inwardly rectifying potassium channel KCNH2 (Q12809 whole entry): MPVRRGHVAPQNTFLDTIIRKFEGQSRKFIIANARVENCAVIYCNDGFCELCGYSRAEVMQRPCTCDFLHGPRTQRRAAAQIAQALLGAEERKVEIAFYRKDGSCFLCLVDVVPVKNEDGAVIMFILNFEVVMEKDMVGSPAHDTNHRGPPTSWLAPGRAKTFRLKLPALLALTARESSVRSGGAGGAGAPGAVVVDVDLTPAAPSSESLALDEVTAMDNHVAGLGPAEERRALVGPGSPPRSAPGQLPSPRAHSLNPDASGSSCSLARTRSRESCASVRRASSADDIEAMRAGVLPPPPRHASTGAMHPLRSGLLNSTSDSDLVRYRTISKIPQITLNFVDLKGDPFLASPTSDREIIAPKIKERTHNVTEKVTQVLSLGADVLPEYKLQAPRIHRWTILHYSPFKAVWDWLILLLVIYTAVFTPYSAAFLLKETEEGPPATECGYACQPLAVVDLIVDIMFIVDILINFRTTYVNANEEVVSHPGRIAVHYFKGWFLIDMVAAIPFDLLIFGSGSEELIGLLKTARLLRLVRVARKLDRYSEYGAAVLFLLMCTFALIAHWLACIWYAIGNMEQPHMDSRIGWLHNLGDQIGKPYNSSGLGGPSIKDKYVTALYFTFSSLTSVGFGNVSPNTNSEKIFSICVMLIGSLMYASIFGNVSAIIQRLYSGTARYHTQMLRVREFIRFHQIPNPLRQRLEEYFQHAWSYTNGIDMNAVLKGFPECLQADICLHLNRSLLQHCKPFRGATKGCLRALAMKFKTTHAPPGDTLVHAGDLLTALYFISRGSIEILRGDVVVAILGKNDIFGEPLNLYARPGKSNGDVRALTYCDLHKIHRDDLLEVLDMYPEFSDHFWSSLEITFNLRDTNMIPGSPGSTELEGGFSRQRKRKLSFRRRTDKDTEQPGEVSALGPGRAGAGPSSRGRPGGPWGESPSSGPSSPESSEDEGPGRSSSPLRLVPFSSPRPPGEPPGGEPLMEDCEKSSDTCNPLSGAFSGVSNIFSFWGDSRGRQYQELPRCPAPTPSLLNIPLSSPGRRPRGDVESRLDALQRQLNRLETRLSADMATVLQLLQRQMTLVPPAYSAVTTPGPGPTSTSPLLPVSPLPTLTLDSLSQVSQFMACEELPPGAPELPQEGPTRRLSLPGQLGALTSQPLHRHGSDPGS
SMILES,IC50 [1],IC50 [3],also measured
C[C@H](N)C(=O)N1C[C@H](CCCB(O)O)[C@](N)(C(=O)O)C1,56.2 µM,,
C[C@H](N)C(=O)N1C[C@@H](CCB(O)O)C[C@](N)(C(=O)O)[C@@H]1C,,0.25 µM,Vd [2]: 0.69 L/kg; clearance [4]: 0.352 L/h/kg; half-life [5]: 2.66 h; Tmax [6]: 1 h; bioavailability [7]: 65.6%; fold change (FC) [8]: 2
CC[C@H](C)[C@H](N)C(=O)N1C[C@@H](CCB(O)O)C[C@](N)(C(=O)O)C1,> 300 µM,0.76 µM,
COC(=O)[C@@]1(N)C[C@H](CCB(O)O)CN(C(=O)[C@H](C)N)C1,,> 10 µM,
NC(=O)CC[C@H](N)C(=O)N1C[C@@H](CCB(O)O)C[C@](N)(C(=O)O)C1,> 300 µM,0.42 µM,
CC(C)[C@H](N)C(=O)N1C[C@@H](CCB(O)O)C[C@](N)(C(=O)O)C1,> 300 µM,0.36 µM,
C[C@@H]1N(C(=O)[C@@H](N)CCCNC(=N)N)C[C@@H](CCB(O)O)C[C@]1(N)C(=O)O,,0.4 µM,
NC(=O)NCCC[C@H](N)C(=O)N1C[C@@H](CCB(O)O)C[C@](N)(C(=O)O)C1,> 300 µM,0.36 µM,
N[C@]1(C(=O)O)C[C@H](CCB(O)O)CN(C(=O)[C@@H]2CCCN2)C1,> 300 µM,0.35 µM,
CN(C)C[C@@H]1CC[C@@H](CCB(O)O)C[C@]1(N)C(=O)O,1.1 µM,0.02 µM,IC50 [12]: 0.02 µM
NCCC[C@H](N)C(=O)N1C[C@@H](CCB(O)O)C[C@](N)(C(=O)O)C1,> 300 µM,0.31 µM,
N[C@@]1(C(=O)O)CCC[C@@H](CCB(O)O)C1,,1.2 µM,
CSCC[C@H](N)C(=O)N1C[C@@H](CCB(O)O)C[C@](N)(C(=O)O)C1,> 300 µM,0.4 µM,
N=C(N)NCCC[C@H](N)C(=O)N1C[C@@H](CCB(O)O)C[C@](N)(C(=O)O)C1,> 300 µM,0.16 µM,Activity [13]: Toxic; Vd [2]: 0.69 L/kg; clearance [4]: 0.352 L/h/kg; half-life [5]: 2.66 h; Tmax [6]: 1 h; bioavailability [7]: 18.8%; fold change (FC) [8]: 2; Drug metabolism [9]: Metabolite_Detected; fold change (FC) [10]: 3; inhibition (INH) [14]: Not Active; Activity [15]: Non-Toxic; Activity [16]: Non-Toxic; permeability [17]: Impermeable
NCCCC[C@H](N)C(=O)N1C[C@@H](CCB(O)O)C[C@](N)(C(=O)O)C1,> 300 µM,0.25 µM,
N[C@@]1(C(=O)O)CNC[C@@H](CCB(O)O)C1,,0.83 µM,
CNCC(=O)N1C[C@@H](CCB(O)O)C[C@](N)(C(=O)O)C1,> 300 µM,0.42 µM,
C[C@@H](O)[C@H](N)C(=O)N1C[C@@H](CCB(O)O)C[C@](N)(C(=O)O)C1,> 300 µM,0.38 µM,
NCC(=O)N1C[C@@H](CCB(O)O)C[C@](N)(C(=O)O)C1,> 300 µM,0.25 µM,Vd [2]: 0.69 L/kg; clearance [4]: 0.352 L/h/kg; half-life [5]: 2.66 h; Tmax [6]: 1 h; bioavailability [7]: 18.8%; fold change (FC) [8]: 2; AUC(0-inf) [18]: 2.68 µg·h/mL
N[C@@H](CCC(=O)O)C(=O)N1C[C@@H](CCB(O)O)C[C@](N)(C(=O)O)C1,> 300 µM,0.68 µM,

# The next lines start with results.
IC50 [1],IC50 [3],SMILES,also measured
,> 10 µM,C[C@H](N)C(=O)N1C[C@@H](CCB(O)O)C[C@@](N)(C(=O)O)C1,
> 300 µM,0.76 µM,N[C@@H](CS)C(=O)N1C[C@@H](CCB(O)O)C[C@](N)(C(=O)O)C1,
> 300 µM,0.28 µM,N[C@@H](CO)C(=O)N1C[C@@H](CCB(O)O)C[C@](N)(C(=O)O)C1,
> 300 µM,0.21 µM,N[C@@H](Cc1c[nH]cn1)C(=O)N1C[C@@H](CCB(O)O)C[C@](N)(C(=O)O)C1,
> 300 µM,0.61 µM,CC(C)C[C@H](N)C(=O)N1C[C@@H](CCB(O)O)C[C@](N)(C(=O)O)C1,
> 300 µM,0.28 µM,N[C@@H](Cc1ccc(O)cc1)C(=O)N1C[C@@H](CCB(O)O)C[C@](N)(C(=O)O)C1,
> 300 µM,0.27 µM,C[C@H](N)C(=O)N1C[C@@H](CCB(O)O)C[C@](N)(C(=O)O)C1,Vd [2]: 0.69 L/kg; clearance [4]: 0.352 L/h/kg; half-life [5]: 2.66 h; Tmax [6]: 1 h; bioavailability [7]: 18.8%; fold change (FC) [8]: 2; Drug metabolism [9]: Metabolite_Detected; fold change (FC) [10]: 3; bioavailability [11]: 58%
> 300 µM,0.65 µM,N[C@@H](CC(=O)O)C(=O)N1C[C@@H](CCB(O)O)C[C@](N)(C(=O)O)C1,
> 300 µM,0.36 µM,NC(=O)C[C@H](N)C(=O)N1C[C@@H](CCB(O)O)C[C@](N)(C(=O)O)C1,
,> 10 µM,C[C@H](N)C(=O)N1C[C@H](CCB(O)O)C[C@](N)(C(=O)O)C1,
> 300 µM,3.22 µM,C[C@@H](N)C(=O)N1C[C@@H](CCB(O)O)C[C@](N)(C(=O)O)C1,
> 300 µM,0.34 µM,CCC[C@H](N)C(=O)N1C[C@@H](CCB(O)O)C[C@](N)(C(=O)O)C1,
> 300 µM,0.74 µM,Cn1cc(C[C@@H](N)C(=O)N2C[C@@H](CCB(O)O)C[C@](N)(C(=O)O)C2)c2ccccc21,
> 300 µM,0.24 µM,N[C@@H](Cc1ccccc1)C(=O)N1C[C@@H](CCB(O)O)C[C@](N)(C(=O)O)C1,Vd [2]: 0.69 L/kg; clearance [4]: 0.352 L/h/kg; half-life [5]: 2.66 h; Tmax [6]: 1 h; bioavailability [7]: 18.8%; fold change (FC) [8]: 2
,> 10 µM,C[C@H](N)C(=O)N1C[C@H](CCB(O)O)C[C@@](N)(C(=O)O)C1,
> 300 µM,0.28 µM,N[C@@H](Cc1c[nH]c2ccccc12)C(=O)N1C[C@@H](CCB(O)O)C[C@](N)(C(=O)O)C1,

# Source: ChEMBL document CHEMBL5537146, “Novel orally bioavailable piperidine derivatives as extracellular arginase inhibitors developed by a ring expansion” (Eur J Med Chem, 2024)
